{"source": "patent US11555012B2", "about": "(Nimbus Artemis, Inc., priority 2018, dated 2023)", "data": [{"biological_target": "ACL (Homo sapiens (Human), UniProt P53396)", "sequence (P53396 other isoform, or with tags, fused parts or gaps isoform P53396-2)": "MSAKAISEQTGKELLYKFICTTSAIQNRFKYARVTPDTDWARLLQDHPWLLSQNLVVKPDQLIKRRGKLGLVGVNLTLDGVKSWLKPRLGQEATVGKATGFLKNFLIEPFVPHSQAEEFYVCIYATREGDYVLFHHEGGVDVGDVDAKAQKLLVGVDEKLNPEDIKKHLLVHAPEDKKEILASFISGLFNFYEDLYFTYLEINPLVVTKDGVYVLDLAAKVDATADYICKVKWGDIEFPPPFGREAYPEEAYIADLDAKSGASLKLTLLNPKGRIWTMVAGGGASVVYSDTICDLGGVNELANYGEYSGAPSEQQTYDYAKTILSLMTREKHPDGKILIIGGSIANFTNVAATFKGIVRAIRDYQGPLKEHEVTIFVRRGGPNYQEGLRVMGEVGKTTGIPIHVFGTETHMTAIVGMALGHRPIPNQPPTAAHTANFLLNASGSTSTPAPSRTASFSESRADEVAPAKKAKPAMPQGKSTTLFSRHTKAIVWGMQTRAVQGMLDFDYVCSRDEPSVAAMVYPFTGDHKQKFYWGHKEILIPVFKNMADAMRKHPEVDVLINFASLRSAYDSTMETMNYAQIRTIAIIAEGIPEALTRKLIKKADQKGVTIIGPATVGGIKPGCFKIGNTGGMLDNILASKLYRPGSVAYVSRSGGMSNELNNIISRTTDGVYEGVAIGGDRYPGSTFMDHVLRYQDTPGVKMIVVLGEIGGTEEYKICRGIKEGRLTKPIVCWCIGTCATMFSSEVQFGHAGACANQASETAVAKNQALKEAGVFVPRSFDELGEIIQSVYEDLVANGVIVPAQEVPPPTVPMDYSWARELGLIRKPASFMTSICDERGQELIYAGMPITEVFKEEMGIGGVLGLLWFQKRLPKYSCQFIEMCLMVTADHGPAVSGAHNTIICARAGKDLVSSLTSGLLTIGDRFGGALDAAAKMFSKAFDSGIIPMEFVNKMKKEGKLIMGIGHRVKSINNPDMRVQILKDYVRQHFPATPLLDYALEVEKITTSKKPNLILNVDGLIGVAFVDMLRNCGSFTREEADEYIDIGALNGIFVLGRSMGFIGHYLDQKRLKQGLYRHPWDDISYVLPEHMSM", "test": "ADP-Glo Assay", "units": {"IC50": "µM"}, "values": [{"smiles": "COc1ccc(-c2ccccc2)cc1NS(=O)(=O)c1cc(Cl)cc(C(=O)O)c1O", "note": "[I-3, 5-chloro-2-hydroxy-3-(N-(4-methoxy-[1,1′-biphenyl]-3-yl)sulfamoyl)benzoic Acid]", "IC50": "0.5 to 20"}, {"smiles": "COc1ccc(Br)cc1NS(=O)(=O)c1cc(Cl)cc(Cl)c1O", "note": "[I-4, N-(5-bromo-2-methoxyphenyl)-3,5-dichloro-2-Hydroxybenzenesulfonamide]", "IC50": "0.5 to 20"}, {"smiles": "COc1ccc(-c2ccc(OC)c(NS(=O)(=O)c3cc(Cl)cc(Cl)c3O)c2)cc1", "note": "[I-5, 3,5-dichloro-N-(4,4′-dimethoxy-[1,1′-biphenyl]-3-yl)-2-hydroxybenzenesulfonamide]", "IC50": "0.5 to 20"}, {"smiles": "COc1ccc(NC(=O)C2CC2)cc1NS(=O)(=O)c1cc(Cl)cc(Cl)c1O", "note": "[I-8, N-(3-((3,5-dichloro-2-hydroxyphenyl)sulfonamido)-4-methoxyphenyl) cyclopropanecarboxamide]", "IC50": "0.5 to 20"}, {"smiles": "COc1ccc(N2CCCCC2)cc1NS(=O)(=O)c1cc(Cl)cc(Cl)c1O", "note": "[I-10, 3,5-dichloro-2-hydroxy-N-(2-methoxy-5-(piperidin-1-yl)phenyl)benzenesulfonamide]", "IC50": "0.5 to 20"}, {"smiles": "COc1cccc(-c2ccccc2)c1NS(=O)(=O)c1cc(Cl)cc(Cl)c1O", "note": "[I-14, 3,5-dichloro-2-hydroxy-N-(3-methoxy-[1,1′-biphenyl]-2-yl)benzenesulfonamide]", "IC50": "0.5 to 20"}, {"smiles": "COc1ccc(-c2ccccc2)cc1N(C)S(=O)(=O)c1cc(Cl)cc(Cl)c1O", "note": "[I-17, 3,5-dichloro-2-hydroxy-N-(4-methoxy-[1,1′-biphenyl]-3-yl)-N-methylbenzenesulfonamide]", "IC50": "0.5 to 20"}, {"smiles": "COc1ccc(-c2ccccc2)cc1NC(=O)c1cc(Cl)cc(Cl)c1O", "note": "[I-18, 3,5-dichloro-2-hydroxy-N-(4-methoxy-[1,1′-biphenyl]-3-yl)benzamide]", "IC50": "0.5 to 20"}, {"smiles": "O=S(=O)(Nc1cc(-c2ccccc2)ccc1O)c1cccc(-c2nn[nH]n2)c1", "note": "[I-25, N-(2-hydroxy-5-phenylphenyl)-3-(2H-1,2,3,4-tetrazol-5-yl) benzene-1-sulfonamide]", "IC50": "0.5 to 20"}, {"smiles": "O=C(Nc1cc(-c2ccccc2)ccc1F)c1cc(Cl)cc(Cl)c1O", "note": "[I-27, 3,5-dichloro-N-(4-fluoro-[1,1′-biphenyl]-3-yl)-2-hydroxybenzamide]", "IC50": "0.5 to 20"}, {"smiles": "O=S(=O)(Nc1cc(-c2ccccc2)ccc1F)c1cc(Cl)ccc1O", "note": "[I-30, 5-chloro-N-(2-fluoro-5-phenylphenyl)-2-hydroxybenzene-1-sulfonamide]", "IC50": "0.5 to 20"}, {"smiles": "O=S(=O)(Nc1cc(-c2ccccc2)ccc1F)c1ccccc1O", "note": "[I-35, N-(2-fluoro-5-phenylphenyl)-2-hydroxybenzene-1-sulfonamide]", "IC50": "0.5 to 20"}, {"smiles": "O=S(=O)(Nc1cc(-c2ccccc2)ccc1F)c1cccc(-c2nn[nH]n2)c1", "note": "[I-37, N-(2-fluoro-5-phenylphenyl)-3-(2H-1,2,3,4-tetrazol-5-yl) benzene-1-sulfonamide]", "IC50": "0.5 to 20"}, {"smiles": "COc1ccc(-c2ccccc2)cc1NS(=O)(=O)c1cc(Cl)cc(-c2nn[nH]n2)c1", "note": "[I-38, 3-chloro-N-(2-methoxy-5-phenylphenyl)-5-(2H-1,2,3,4-tetrazol-5-yl)benzene-1-sulfonamide]", "IC50": "0.5 to 20"}, {"smiles": "COc1ccc(-c2ccccc2)cc1NS(=O)(=O)c1cc(C(=O)O)cc(Cl)c1OC", "note": "[I-39, 3-chloro-4-methoxy-5-(N-(4-methoxy-[1,1′-biphenyl]-3-yl)sulfamoyl)benzoic Acid]", "IC50": "0.5 to 20"}, {"smiles": "COc1ccc(-c2ccccc2)cc1NS(=O)(=O)c1cc(F)cc(F)c1O", "note": "[I-40, 3,5-difluoro-2-hydroxy-N-(2-methoxy-5-phenylphenyl) benzene-1-sulfonamide]", "IC50": "0.5 to 20"}, {"smiles": "COC(=O)c1cc(Cl)c(OC)c(S(=O)(=O)Nc2cc(-c3cccnc3)ccc2OC)c1", "note": "[I-42, Methyl 3-chloro-4-methoxy-5-(N-(2-methoxy-5-(pyridine-3-yl)phenyl)sulfamoyl)benzoate]", "IC50": "0.5 to 20"}, {"smiles": "COC(=O)c1ccc(F)c(NS(=O)(=O)c2cc(Cl)cc(Cl)c2O)c1", "note": "[I-43, Methyl 3-((3,5-dichloro-2-hydroxyphenyl)sulfonamido)-4-fluorobenzoate]", "IC50": "0.5 to 20"}, {"smiles": "COc1ccc(-c2ccccc2)cc1NS(=O)(=O)c1cc(Cl)c(O)c(Br)c1", "note": "[I-44, 3-bromo-5-chloro-4-hydroxy-N-(2-methoxy-5-phenylphenyl)benzene-1-sulfonamide]", "IC50": "0.5 to 20"}, {"smiles": "O=C(NO)c1ccc(F)c(NS(=O)(=O)c2cc(Cl)cc(Cl)c2O)c1", "note": "[I-45, 3-[(3,5-dichloro-2-hydroxybenzene)sulfonamido]-4-fluoro-N-hydroxybenzamide]", "IC50": "0.5 to 20"}, {"smiles": "COc1c(Cl)cc(C#N)cc1S(=O)(=O)Nc1cc(-c2ccccc2)ccc1F", "note": "[I-51, 3-chloro-5-cyano-N-(4-fluoro-[1,1′-biphenyl]-3-yl)-2-methoxybenzenesulfonamide]", "IC50": "0.5 to 20"}, {"smiles": "COC(=O)c1cc(Cl)c(OC)c(S(=O)(=O)Nc2cc(-c3cccs3)ccc2F)c1", "note": "[I-52, Methyl 3-chloro-5-(N-(2-fluoro-5-(thiophen-2-yl)phenyl)sulfamoyl)-4-methoxybenzoate]", "IC50": "0.5 to 20"}, {"smiles": "O=S(=O)(Nc1cc(-c2ccccc2)ccc1F)c1cc(Cl)c(O)cc1O", "note": "[I-54, 5-chloro-N-(2-fluoro-5-phenylphenyl)-2,4-dihydroxybenzene-1-sulfonamide]", "IC50": "0.5 to 20"}, {"smiles": "Nc1cc(-c2ccccc2)ccc1NS(=O)(=O)c1cc(Cl)cc(Br)c1O", "note": "[I-57, N-(2-amino-4-phenylphenyl)-3-bromo-5-chloro-2-hydroxybenzene-1-sulfonamide]", "IC50": "0.5 to 20"}, {"smiles": "O=C(Nc1ccccc1)c1ccc(F)c(NS(=O)(=O)c2cc(Cl)cc(Cl)c2O)c1", "note": "[I-61, 3-((3,5-dichloro-2-hydroxyphenyl)sulfonamido)-4-fluoro-N-phenylbenzamide]", "IC50": "0.5 to 20"}, {"smiles": "COC(=O)c1cc(Cl)c(OC)c(S(=O)(=O)Nc2cc(-c3ccccc3)c(F)cc2F)c1", "note": "[I-63, Methyl 3-chloro-5-(N-(4,6-difluoro-[1,1′-biphenyl]-3-yl)sulfamoyl)-4-methoxybenzoate]", "IC50": "0.5 to 20"}, {"smiles": "COc1ccc(-c2ccccc2)cc1NS(=O)(=O)c1cc(CC(=O)O)cc(Cl)c1O", "note": "[I-68, 2-[3-chloro-4-hydroxy-5-[(2-methoxy-5-phenylphenyl)sulfamoyl]phenyl]acetic Acid]", "IC50": "0.5 to 20"}, {"smiles": "O=S(=O)(Nc1cc(F)ccc1F)c1cc(Cl)cc(Cl)c1O", "note": "[I-69, 3,5-dichloro-N-(2,5-difluorophenyl)-2-hydroxybenzene-1-sulfonamide]", "IC50": "0.5 to 20"}, {"smiles": "COc1c(Cl)cc(C(=O)O)cc1S(=O)(=O)Nc1cc(-c2ccccc2)ccc1F", "note": "[I-70, 3-chloro-5-([4-fluoro-[1,1-biphenyl]-3-yl]sulfamoyl)-4-methoxybenzoic Acid]", "IC50": "0.5 to 20"}, {"smiles": "COc1ccc(-c2ccccc2)cc1NS(=O)(=O)c1cc(-c2nn[nH]n2)cc(Cl)c1OC", "note": "[I-71, 3-chloro-2-methoxy-N-(2-methoxy-5-phenylphenyl)-5-(2H-1,2,3,4-tetrazol-5-yl)benzene-1-sulfonamide]", "IC50": "0.5 to 20"}, {"smiles": "O=S(=O)(Nc1cc(-c2ccccc2)c(F)cc1F)c1cc(Cl)cc(-c2nn[nH]n2)c1", "note": "[I-72, 3-chloro-N-(2,4-difluoro-5-phenylphenyl)-5-(2H-1,2,3,4-tetrazol-5-yl)benzene-1-sulfonamide]", "IC50": "0.5 to 20"}, {"smiles": "COc1ccc(-c2ccccc2)cc1NS(=O)(=O)c1cc(-c2nn[nH]n2)cc(Cl)c1O", "note": "[I-73, 3-chloro-2-hydroxy-N-(2-methoxy-5-phenylphenyl)-5-(2H-1,2,3,4-tetrazol-5-yl)benzene-1-sulfonamide]", "IC50": "0.5 to 20"}, {"smiles": "N#Cc1cc(Cl)cc(S(=O)(=O)Nc2cc(-c3ccccc3)c(F)cc2F)c1", "note": "[I-75, 3-chloro-5-cyano-N-(2,4-difluoro-5-phenylphenyl) benzene-1-sulfonamide]", "IC50": "0.5 to 20"}, {"smiles": "O=C(O)c1cc(Cl)c(O)c(S(=O)(=O)Nc2ccc(F)cc2F)c1", "note": "[I-76, 3-chloro-5-[(2,4-difluorophenyl)sulfamoyl]-4-hydroxybenzoic Acid]", "IC50": "0.5 to 20"}, {"smiles": "O=C(O)COc1c(Cl)cc(Cl)cc1S(=O)(=O)Nc1cc(-c2ccccc2)c(F)cc1F", "note": "[I-77, 2-(2,4-dichloro-6-(N-(4,6-difluoro-[1,1′-biphenyl]-3-yl)sulfamoyl)phenoxy)acetic Acid]", "IC50": "0.5 to 20"}, {"smiles": "COC(=O)COc1c(Br)cc(Cl)cc1S(=O)(=O)Nc1cc(-c2ccccc2)ccc1F", "note": "[I-78, Methyl 2-(2-bromo-4-chloro-6-(N-(4-fluoro-[1,1′-biphenyl]-3-yl)sulfamoyl)phenoxy)acetate]", "IC50": "0.5 to 20"}, {"smiles": "COC(=O)COc1c(Cl)cc(Cl)cc1S(=O)(=O)Nc1cc(-c2ccccc2)c(F)cc1F", "note": "[I-79, Methyl 2-[2,4-dichloro-6-[(2,4-difluoro-5-phenylphenyl)sulfamoyl]phenoxy]acetate]", "IC50": "0.5 to 20"}, {"smiles": "O=S(=O)(Nc1cc(-c2ccccc2)ccc1F)c1cc(Cl)cc(Cl)c1OCC(F)(F)F", "note": "[I-85, 3,5-dichloro-N-(2-fluoro-5-phenylphenyl)-2-(2,2,2-trifluoroethoxy)benzene-1-sulfonamide]", "IC50": "0.5 to 20"}, {"smiles": "O=S(=O)(Nc1sccc1-c1ccccc1)c1cc(Cl)cc(Cl)c1O", "note": "[I-89, 3,5-dichloro-2-hydroxy-N-(3-phenylthiophen-2-yl) benzenesulfonamide]", "IC50": "0.5 to 20"}, {"smiles": "O=S(=O)(Nc1cc(-c2ccccc2)c(F)cc1F)c1cccc(-c2nn[nH]n2)c1", "note": "[I-96, N-(2,4-difluoro-5-phenylphenyl)-3-(2H-1,2,3,4-tetrazol-5-yl)benzene-1-sulfonamide]", "IC50": "0.5 to 20"}, {"smiles": "O=S(=O)(Nc1cc(-c2ccccc2)ccc1F)c1cc(Cl)cc(Cl)c1Oc1nccs1", "note": "[I-97, 3,5-dichloro-N-(2-fluoro-5-phenylphenyl)-2-(1,3-thiazol-2-yloxy)benzene-1-sulfonamide]", "IC50": "0.5 to 20"}, {"smiles": "C=CCN(c1cc(-c2ccccc2)ccc1F)S(=O)(=O)c1cc(C(=O)OC)cc(Cl)c1O", "note": "[I-108, Methyl 3-(N-allyl-N-(4-fluoro-[1,1′-biphenyl]-3-yl)sulfamoyl)-5-chloro-4-hydroxybenzoate]", "IC50": "0.5 to 20"}, {"smiles": "Cn1ncc(-c2ccccc2)c1NS(=O)(=O)c1cc(Cl)cc(Cl)c1O", "note": "[I-109, 3,5-dichloro-2-hydroxy-N-(1-methyl-4-phenyl-1H-pyrazol-5-yl)benzenesulfonamide]", "IC50": "0.5 to 20"}, {"smiles": "COC(=O)c1cc(Cl)c(OCC(=O)O)c(S(=O)(=O)Nc2cc(-c3ccccc3)ccc2F)c1", "note": "[I-114, 2-[2-chloro-6-([4-fluoro-[1,1-biphenyl]-3-yl]sulfamoyl)-4-(methoxycarbonyl)phenoxy]acetic Acid]", "IC50": "0.5 to 20"}]}]}
